Measurements: ChEMBL document CHEMBL1201862, “PubChem BioAssay data set” (2004)
One block for each molecule: values may come before it. Calls of active or inactive are those of the source.

Columns and labels:
Mucolipin-3 = molecular target: T1, Mucolipin-3 (Homo sapiens, UniProt Q8TDD5); test: Fluorescence counterscreen assay for […] agonists: dose response cell-based high-throughput screening assay to identify agonists of the transient receptor potential channel ML3 (TRPML3). [Related pubchem assays: 1424, 1448 ]; assay type: functional
T1 sequence (Q8TDD5 whole entry): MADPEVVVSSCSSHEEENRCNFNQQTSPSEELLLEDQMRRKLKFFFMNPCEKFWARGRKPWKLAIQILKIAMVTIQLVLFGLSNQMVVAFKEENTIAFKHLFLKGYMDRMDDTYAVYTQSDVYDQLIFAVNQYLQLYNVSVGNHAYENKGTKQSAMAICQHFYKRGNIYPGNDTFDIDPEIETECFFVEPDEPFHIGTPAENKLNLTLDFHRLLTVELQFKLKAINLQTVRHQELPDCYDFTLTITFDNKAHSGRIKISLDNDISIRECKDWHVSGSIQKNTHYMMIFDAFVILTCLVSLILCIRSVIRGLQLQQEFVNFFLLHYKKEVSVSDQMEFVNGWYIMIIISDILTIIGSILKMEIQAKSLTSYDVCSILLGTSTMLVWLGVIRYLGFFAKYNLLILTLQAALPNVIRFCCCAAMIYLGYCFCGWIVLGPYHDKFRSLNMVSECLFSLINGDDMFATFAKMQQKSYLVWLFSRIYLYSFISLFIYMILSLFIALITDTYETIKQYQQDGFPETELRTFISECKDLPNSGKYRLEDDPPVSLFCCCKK

Ion channel NompC = Ion channel NompC (Danio rerio, UniProt Q7T1G6); test: Dose response cell-based high-throughput screening assay for agonists of the transient receptor potential channel N1 (TRPN1). [Related pubchem assays (depositor defined):AID1424, AID1448]; assay type: functional
[1] = molecular target: T2, Short transient receptor potential channel 4 (Mus musculus, UniProt Q9QUQ5); test: potentiation of DAMGO-evoked TRPC4 calcium signal – cell-based, HEK293 TRPC4/mu-opioid, Fluo-4 calcium, EC20 DAMGO, dose response (AID 434941); assay type: functional
T2 sequence (Q9QUQ5 whole entry): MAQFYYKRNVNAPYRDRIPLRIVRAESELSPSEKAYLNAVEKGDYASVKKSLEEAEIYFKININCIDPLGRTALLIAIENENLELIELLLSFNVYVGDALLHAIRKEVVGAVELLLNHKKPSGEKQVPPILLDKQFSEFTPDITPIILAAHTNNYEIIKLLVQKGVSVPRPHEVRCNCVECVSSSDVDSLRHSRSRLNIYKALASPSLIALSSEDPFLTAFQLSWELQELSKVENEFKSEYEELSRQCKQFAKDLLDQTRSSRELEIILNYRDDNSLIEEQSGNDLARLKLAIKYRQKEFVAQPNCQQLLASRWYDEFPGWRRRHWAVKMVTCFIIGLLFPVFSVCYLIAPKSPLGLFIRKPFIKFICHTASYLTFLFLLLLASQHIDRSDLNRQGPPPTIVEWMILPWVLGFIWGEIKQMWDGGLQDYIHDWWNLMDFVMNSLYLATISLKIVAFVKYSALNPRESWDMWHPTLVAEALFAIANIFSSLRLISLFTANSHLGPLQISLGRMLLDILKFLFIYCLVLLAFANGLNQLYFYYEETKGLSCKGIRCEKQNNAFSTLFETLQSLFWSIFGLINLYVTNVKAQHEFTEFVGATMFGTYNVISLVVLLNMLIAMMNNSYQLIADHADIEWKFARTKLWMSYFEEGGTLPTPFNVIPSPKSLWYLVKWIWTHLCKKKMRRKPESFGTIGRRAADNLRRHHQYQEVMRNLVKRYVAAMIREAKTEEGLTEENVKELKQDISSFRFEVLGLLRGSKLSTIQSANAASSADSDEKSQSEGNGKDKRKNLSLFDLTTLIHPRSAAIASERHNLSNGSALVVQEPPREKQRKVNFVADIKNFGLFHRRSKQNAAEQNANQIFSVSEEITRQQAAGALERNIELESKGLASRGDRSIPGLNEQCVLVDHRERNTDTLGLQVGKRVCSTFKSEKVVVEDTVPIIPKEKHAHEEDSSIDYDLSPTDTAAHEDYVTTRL

[2] = cAMP pathway inhibition in counterscreen cell line – TR-FRET cAMP detection, counter-screen for MC4R biased antagonist project, dose response (AID 602305); assay type: functional, cell-based;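 note: U2OS cells stimulated with forskolin near its EC80 as the cAMP inducer; potency is for inhibition of forskolin-stimulated cAMP signaling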
[3] = Luminescence Cell-Based Dose Retest to Confirm Inhibitors of Cancer Stem Cells. [Related pubchem assays (depositor defined):AID2717, AID2721]; assay type: functional; conditions: Homo sapiens
Melanocortin receptor 4 = Melanocortin receptor 4 (Homo sapiens, UniProt P32245); test: inhibitors of MC4R cAMP signaling – cell-based, TR-FRET, biased antagonists, dose response (AID 602298); assay type: functional;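 note: antagonist potency against agonist-stimulated cAMP production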
Sequence of Melanocortin receptor 4 (P32245 whole entry): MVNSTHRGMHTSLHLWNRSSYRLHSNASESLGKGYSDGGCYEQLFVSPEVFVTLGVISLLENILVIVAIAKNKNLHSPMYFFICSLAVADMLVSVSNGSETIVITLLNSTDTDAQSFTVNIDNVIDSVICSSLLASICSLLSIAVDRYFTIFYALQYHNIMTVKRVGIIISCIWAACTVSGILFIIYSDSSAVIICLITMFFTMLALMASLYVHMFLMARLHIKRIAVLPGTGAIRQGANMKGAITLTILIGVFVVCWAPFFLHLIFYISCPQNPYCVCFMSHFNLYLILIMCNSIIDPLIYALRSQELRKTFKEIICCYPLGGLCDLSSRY

[4] = molecular target: Heat shock protein HSP 90-alpha (Homo sapiens, UniProt P07900); assay type: functional, organism-based
Coagulation factor XII = molecular target: T3, Coagulation factor XII (Homo sapiens, UniProt P00748); test: activated coagulation factor XII inhibitor potency, concentration-effect curve, cell-free (AID 716); assay type: functional
T3 sequence (P00748 whole entry): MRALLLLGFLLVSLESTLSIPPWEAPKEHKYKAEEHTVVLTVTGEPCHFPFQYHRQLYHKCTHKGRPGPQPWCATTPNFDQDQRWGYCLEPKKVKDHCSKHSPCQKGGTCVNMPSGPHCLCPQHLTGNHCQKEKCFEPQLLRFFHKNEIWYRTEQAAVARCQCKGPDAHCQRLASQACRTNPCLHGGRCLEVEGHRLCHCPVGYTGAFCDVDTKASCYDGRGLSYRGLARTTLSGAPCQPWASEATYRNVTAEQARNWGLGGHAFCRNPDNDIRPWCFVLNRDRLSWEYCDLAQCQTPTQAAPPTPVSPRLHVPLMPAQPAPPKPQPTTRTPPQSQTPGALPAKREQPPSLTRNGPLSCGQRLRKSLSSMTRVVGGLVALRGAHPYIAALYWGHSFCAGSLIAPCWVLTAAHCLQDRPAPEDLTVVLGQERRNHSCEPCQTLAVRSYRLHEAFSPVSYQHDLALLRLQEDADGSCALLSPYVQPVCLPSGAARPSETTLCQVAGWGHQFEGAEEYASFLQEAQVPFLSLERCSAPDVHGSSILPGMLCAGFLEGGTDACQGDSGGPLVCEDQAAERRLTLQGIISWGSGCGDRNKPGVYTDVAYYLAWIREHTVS

[5] = molecular target: Protein phosphatase methylesterase 1 (Homo sapiens, UniProt Q9Y570); test: inhibition of PME-1 probe labeling – gel-based ABPP, IC50, set 1, late-stage follow-up (AID 463130); assay type: functional
[6] = molecular target: DNA damage-inducible transcript 3 protein (Mus musculus, UniProt P35639); assay type: functional, Cricetulus griseus
Sequence of DNA damage-inducible transcript 3 protein (P35639 whole entry): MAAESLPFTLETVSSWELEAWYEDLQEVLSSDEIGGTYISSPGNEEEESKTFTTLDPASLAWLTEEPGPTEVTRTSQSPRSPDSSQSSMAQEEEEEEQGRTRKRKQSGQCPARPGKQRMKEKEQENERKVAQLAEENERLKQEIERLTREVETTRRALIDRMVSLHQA

X-box-binding protein 1 = X-box-binding protein 1 (Homo sapiens, UniProt P17861); assay type: functional, Cricetulus griseus;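 note: confirmatory dose-response counter-screen serving a CHOP assay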
Sequence of X-box-binding protein 1 (P17861 whole entry): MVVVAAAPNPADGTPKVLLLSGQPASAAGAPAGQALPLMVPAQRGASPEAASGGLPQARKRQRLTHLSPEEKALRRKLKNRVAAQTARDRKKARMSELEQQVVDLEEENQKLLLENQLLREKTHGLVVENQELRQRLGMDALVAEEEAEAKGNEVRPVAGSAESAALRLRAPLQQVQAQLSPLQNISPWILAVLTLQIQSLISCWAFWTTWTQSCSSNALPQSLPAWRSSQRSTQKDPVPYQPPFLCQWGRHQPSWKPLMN

[7] = molecular target: T4, Kappa-type opioid receptor (Homo sapiens, UniProt P41145); test: SAR analysis of small molecule antagonists of the kappa opioid receptor via a luminescent beta-arrestin assay - Set 3. [Related pubchem assays (depositor defined):AID1777, AID1778, AID1785, AID1786, AID1966, AID2133, AID2136, AID2285, AID2495]; assay type: functional
T4 sequence (P41145 whole entry): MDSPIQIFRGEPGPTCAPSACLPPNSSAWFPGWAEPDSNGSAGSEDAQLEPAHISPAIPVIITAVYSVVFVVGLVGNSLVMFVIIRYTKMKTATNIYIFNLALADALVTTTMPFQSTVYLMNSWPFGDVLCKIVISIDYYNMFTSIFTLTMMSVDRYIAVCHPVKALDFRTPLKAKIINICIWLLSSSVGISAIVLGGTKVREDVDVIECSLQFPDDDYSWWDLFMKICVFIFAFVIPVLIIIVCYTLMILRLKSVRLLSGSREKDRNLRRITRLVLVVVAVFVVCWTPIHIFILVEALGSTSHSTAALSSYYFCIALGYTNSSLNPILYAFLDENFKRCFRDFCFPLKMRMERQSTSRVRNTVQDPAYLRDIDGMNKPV

[8] = molecular target: T4, Kappa-type opioid receptor; test: SAR analysis of Antagonists of the Kappa Opioid Receptor (KOR) using an Image-Based Assay - Set 3. [Related pubchem assays (depositor defined):AID1777, AID1785]; assay type: functional
Mu-type opioid receptor = Mu-type opioid receptor (Homo sapiens, UniProt P35372); test: SAR Analysis of Antagonists of the MOR Receptor using an Image-Based Assay - Set 3. [Related pubchem assays (depositor defined):AID1777, AID1785, AID1786, AID1966, AID2133, AID2136, AID2284, AID2285, AID2420]; assay type: functional
Sequence of Mu-type opioid receptor (P35372 whole entry): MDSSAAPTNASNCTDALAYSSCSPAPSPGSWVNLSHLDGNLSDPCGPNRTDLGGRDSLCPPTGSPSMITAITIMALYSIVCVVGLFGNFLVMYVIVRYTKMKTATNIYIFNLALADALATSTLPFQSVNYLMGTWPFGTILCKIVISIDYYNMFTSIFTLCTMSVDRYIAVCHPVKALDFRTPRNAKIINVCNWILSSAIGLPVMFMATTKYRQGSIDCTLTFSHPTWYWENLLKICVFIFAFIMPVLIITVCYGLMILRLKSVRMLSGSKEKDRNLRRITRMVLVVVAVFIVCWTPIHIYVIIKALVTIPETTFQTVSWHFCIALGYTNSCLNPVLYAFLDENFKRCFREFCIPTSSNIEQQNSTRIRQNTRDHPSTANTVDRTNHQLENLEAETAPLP

[9] = molecular target: Delta-type opioid receptor (Homo sapiens, UniProt P41143); test: SAR Analysis of Antagonists of the DOR Receptor using an Image-Based Assay - Set 3. [Related pubchem assays (depositor defined):AID1777, AID1785]; assay type: functional;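 note: U2OS cells expressing DOR1 and beta-arrestin GFP stimulated with 100 nM SNC80; imaging of GFP-tagged beta-arrestin moving into spots after receptor activation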
Sequence of Delta-type opioid receptor (P41143 whole entry): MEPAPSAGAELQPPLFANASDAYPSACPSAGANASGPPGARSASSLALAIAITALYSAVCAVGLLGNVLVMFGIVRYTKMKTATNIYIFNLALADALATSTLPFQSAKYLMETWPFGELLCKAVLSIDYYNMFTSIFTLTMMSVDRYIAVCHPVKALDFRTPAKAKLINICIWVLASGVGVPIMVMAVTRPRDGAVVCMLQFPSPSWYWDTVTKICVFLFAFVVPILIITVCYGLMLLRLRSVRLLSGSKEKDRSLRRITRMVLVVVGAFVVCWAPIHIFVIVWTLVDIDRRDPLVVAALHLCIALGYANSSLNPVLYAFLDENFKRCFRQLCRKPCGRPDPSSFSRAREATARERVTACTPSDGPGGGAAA

Hexokinase = Hexokinase (Trypanosoma brucei, UniProt Q38C41); test: Confirmation assay for inhibitors of Trypanosoma brucei hexokinase 1-Analogue-first series. [Related pubchem assays (depositor defined):AID1430, AID1632, AID2516, AID2560, AID2579, AID2600, AID449725, AID492951]; assay type: functional
Sequence of Hexokinase (Q38C41 whole entry): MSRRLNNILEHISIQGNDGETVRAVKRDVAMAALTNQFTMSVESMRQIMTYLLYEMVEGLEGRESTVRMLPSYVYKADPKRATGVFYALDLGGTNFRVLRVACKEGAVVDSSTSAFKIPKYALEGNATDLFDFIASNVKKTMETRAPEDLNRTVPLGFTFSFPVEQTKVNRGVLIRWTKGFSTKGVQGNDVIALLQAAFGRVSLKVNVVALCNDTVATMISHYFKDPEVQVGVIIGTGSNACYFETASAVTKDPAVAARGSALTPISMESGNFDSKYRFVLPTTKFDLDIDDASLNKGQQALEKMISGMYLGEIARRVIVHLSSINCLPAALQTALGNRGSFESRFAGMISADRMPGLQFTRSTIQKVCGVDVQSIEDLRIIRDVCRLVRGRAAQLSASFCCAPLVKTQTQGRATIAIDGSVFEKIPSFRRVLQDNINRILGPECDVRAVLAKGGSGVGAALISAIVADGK

Cannabinoid receptor 1 [10] = molecular target: T5, Cannabinoid receptor 1 (Homo sapiens, UniProt P21554); test: SAR analysis of antagonists of the Cannabinoid Receptor 1 using an Image-Based Assay - Set 3. [Related pubchem assays (depositor defined):AID1961, AID1965]; assay type: functional
T5 sequence (P21554 whole entry): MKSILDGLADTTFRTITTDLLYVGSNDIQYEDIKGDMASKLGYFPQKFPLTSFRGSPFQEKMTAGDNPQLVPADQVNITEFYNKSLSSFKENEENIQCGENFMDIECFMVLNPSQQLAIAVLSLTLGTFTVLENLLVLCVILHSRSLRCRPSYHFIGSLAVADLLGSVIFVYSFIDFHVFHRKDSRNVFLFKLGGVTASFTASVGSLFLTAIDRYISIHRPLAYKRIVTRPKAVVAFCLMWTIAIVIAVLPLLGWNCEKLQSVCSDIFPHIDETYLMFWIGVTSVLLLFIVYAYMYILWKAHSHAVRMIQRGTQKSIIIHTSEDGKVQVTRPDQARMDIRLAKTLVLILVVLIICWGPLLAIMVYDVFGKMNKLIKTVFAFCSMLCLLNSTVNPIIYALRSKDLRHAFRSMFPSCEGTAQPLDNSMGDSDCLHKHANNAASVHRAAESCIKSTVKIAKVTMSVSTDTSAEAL

[11] = molecular target: T6, G-protein coupled receptor 35 (Homo sapiens, UniProt Q9HC97); test: SAR analysis of Antagonists of the GPR35 Receptor using an Image-Based Assay - Set 4. [Related pubchem assays (depositor defined):[…]]; assay type: functional
T6 sequence (Q9HC97 whole entry): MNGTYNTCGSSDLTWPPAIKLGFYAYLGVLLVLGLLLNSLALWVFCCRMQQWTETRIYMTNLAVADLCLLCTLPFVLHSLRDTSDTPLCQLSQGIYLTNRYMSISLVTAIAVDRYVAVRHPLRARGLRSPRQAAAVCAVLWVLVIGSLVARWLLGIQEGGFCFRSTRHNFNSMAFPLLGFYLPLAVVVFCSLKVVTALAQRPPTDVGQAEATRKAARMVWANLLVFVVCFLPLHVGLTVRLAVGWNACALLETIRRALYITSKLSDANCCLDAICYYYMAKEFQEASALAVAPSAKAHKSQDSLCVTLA

[12] = molecular target: G-protein coupled receptor 55 (Homo sapiens, UniProt Q9Y2T6); test: SAR analysis of selective Agonists of GPR55 using an Image-Based Assay - Set 2. [Related pubchem assays (depositor defined):AID1961, AID1965]; assay type: functional
Sequence of G-protein coupled receptor 55 (Q9Y2T6 whole entry): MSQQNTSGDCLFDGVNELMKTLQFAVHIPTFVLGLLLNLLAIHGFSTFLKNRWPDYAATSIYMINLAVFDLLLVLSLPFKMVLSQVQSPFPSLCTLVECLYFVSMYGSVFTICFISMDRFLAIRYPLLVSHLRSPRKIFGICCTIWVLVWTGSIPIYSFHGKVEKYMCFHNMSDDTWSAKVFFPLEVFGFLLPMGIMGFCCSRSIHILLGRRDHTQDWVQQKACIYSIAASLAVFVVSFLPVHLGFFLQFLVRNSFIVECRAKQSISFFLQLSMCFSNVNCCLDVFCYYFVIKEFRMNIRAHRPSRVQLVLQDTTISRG

[13] = molecular target: T6, G-protein coupled receptor 35; test: SAR analysis of Agonists of the GPR35 Receptor using an Image-Based Assay - Set 3. [Related pubchem assays (depositor defined):AID1961, AID1965]; assay type: functional
Cannabinoid receptor 1 [14] = molecular target: T5, Cannabinoid receptor 1; test: SAR analysis of agonists of the Cannabinoid Receptor 1 using an Image-Based Assay - Set 3. [Related pubchem assays (depositor defined):AID1961, AID1965]; assay type: functional
Cannabinoid receptor 2 [15] = molecular target: T7, Cannabinoid receptor 2 (Homo sapiens, UniProt P34972); test: SAR analysis of antagonists of the Cannabinoid Receptor 2 using an Image-Based Assay - Set 2. [Related pubchem assays (depositor defined):AID1961, AID1965]; assay type: functional
T7 sequence (P34972 whole entry): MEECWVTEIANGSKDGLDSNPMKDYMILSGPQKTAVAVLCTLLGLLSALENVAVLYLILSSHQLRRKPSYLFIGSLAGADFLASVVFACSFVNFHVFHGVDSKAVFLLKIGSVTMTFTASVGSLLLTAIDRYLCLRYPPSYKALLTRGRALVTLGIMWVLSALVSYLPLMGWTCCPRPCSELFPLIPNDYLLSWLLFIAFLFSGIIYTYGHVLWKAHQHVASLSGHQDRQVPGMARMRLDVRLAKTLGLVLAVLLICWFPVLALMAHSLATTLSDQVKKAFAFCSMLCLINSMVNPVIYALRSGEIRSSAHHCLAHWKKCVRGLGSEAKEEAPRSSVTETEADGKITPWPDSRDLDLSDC

Cannabinoid receptor 2 [16] = molecular target: T7, Cannabinoid receptor 2; test: SAR analysis of agonists of the Cannabinoid Receptor 2 using an Image-Based Assay - Set 2. [Related pubchem assays (depositor defined):AID1961, AID1965]; assay type: functional
[17] = molecular target: T4, Kappa-type opioid receptor; test: SAR analysis of small molecule antagonists of the kappa opioid receptor via a luminescent beta-arrestin assay - Set 4. [Related pubchem assays (depositor defined):AID1777, AID1778, AID1785, AID1786, AID1966, AID2133, AID2136, AID2285]; assay type: functional
[18] = molecular target: T4, Kappa-type opioid receptor; test: SAR analysis of small molecule antagonists of the kappa opioid receptor via a luminescent beta-arrestin assay - Set 6. [Related pubchem assays (depositor defined):AID1777, AID1778, AID1785, AID1786, AID1966, AID2133, AID2136, AID2285]; assay type: functional
[19] = molecular target: T4, Kappa-type opioid receptor; test: SAR analysis of Antagonists of the Kappa Opioid Receptor (KOR) using an Image-Based Assay - Set 4. [Related pubchem assays (depositor defined):AID1777, AID1785]; assay type: functional
HEK293 [20] = test: inhibition of NOD1-driven NF-kB reporter – cell-based, luminescence, uHTS, primary screen (AID 1578); assay type: functional; conditions: Homo sapiens
[21] = molecular target: Nucleotide-binding oligomerization domain-containing protein 2 (Homo sapiens, UniProt Q9HC29); test: inhibition of NOD2-driven NF-kB reporter – cell-based, luminescence, uHTS, HEK293 (AID 1566); assay type: functional
Sequence of Nucleotide-binding oligomerization domain-containing protein 2 (Q9HC29 whole entry, the tested form may be a part): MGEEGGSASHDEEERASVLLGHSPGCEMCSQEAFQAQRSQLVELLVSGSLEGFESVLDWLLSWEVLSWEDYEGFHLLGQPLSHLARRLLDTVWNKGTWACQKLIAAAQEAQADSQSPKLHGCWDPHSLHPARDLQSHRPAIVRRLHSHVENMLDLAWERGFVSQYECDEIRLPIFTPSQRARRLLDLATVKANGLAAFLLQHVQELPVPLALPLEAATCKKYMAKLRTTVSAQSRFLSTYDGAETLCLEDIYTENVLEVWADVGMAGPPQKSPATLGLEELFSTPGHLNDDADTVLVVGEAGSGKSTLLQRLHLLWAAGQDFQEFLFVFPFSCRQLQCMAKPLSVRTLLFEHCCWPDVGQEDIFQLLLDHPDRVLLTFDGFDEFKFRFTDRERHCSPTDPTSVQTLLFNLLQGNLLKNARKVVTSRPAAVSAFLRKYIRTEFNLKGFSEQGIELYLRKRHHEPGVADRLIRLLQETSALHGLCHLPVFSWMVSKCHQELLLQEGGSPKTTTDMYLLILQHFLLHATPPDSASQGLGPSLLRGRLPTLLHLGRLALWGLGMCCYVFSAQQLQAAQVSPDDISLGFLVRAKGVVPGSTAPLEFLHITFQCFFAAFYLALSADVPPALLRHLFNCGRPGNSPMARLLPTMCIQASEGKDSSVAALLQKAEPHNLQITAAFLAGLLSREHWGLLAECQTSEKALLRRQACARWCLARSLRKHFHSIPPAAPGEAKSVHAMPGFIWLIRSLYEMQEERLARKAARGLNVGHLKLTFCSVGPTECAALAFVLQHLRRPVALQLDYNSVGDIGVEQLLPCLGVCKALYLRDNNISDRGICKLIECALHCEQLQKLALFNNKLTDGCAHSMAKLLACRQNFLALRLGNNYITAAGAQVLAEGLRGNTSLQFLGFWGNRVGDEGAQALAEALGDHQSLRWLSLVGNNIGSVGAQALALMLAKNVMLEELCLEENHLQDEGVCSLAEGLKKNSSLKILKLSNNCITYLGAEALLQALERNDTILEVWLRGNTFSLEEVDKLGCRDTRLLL

HEK293 [22] = test: NOD2 signaling inhibitors in MDP-stimulated cells, cell-based, uHTS, luminescence (AID 2001); assay type: functional; conditions: Homo sapiens
HEK293 [23] = test: cells; assay type: functional, cell-based; conditions: Homo sapiens
HEK293 [24] = test: cells; assay type: functional, cell-based; conditions: Homo sapiens; remark: listed apart in the source

Compound: CC1CCN(c2nc(Cl)nc(Nc3ccc([N+](=O)[O-])cc3)n2)CC1
- EC50 [1]: 3.35 µM (active)
- IC50 [2]: > 64.5 µM (inactive)
- AC50 [3]: 2.99 µM (active)
- IC50 (Melanocortin receptor 4): > 64.5 µM (inactive)
- AC50 [4]: 17.6 µM (active)

Compound: COC(=O)N1C(=O)[C@](c2ccsc2)(C(C)C)N1C(=O)OC
- IC50 [5]: 10.7 µM (inactive)

Compound: O=C(Nc1ccccc1O)c1c(O)nc2c(c1O)CCCC2
- Absolute IC50 (CHOP) [6]: 10 µM
- Absolute IC50 (XBP1) (X-box-binding protein 1): 10 µM

Compound: Cc1ccc(Cl)cc1N1CCN(CCNC(=O)Cn2c(=O)c3cccn3c3cccnc32)CC1
- IC50 [7]: > 20 µM (inactive)
- IC50 [8]: > 32 µM (inactive)
- IC50 (Mu-type opioid receptor): 3.98 µM (active)
- IC50 [9]: > 32 µM (inactive)

Compound: CCOC(=O)c1ccncc1NC(=O)c1ccc(OC)cc1
- IC50 (Hexokinase): > 25 µM (inactive)

Compound: Cc1c(/C=N/NC(=O)c2ccccc2O)c2ccccn2c1C(=O)c1ccc(F)cc1
- EC50 (HEK293 [20]): 10.3 µM (active)
- EC50 [21]: 6.46 µM (active)
- IC50 (HEK293 [22]): 6.49 µM (active)
- IC50 (HEK293 [23]): 11.5 µM (active)
- IC50 (HEK293 [24]): 10.9 µM (active)

Other lines, results leading:

- EC50 (Mucolipin-3): > 29.9 µM (not active)
- EC50 (Ion channel NompC): > 29.9 µM (inactive)
Compound: O=C(Nc1ccccc1)Nc1ccc2snnc2c1

- IC50 (Coagulation factor XII): > 50 µM (inactive)
Compound: COC(=O)c1ccccc1NC(=O)N1CCN(C(=O)c2ccco2)CC1

- IC50 (Cannabinoid receptor 1 [10]): 9.36 µM (active)
- IC50 [11]: > 32 µM (inactive)
- EC50 [12]: > 32 µM (inactive)
- EC50 [13]: > 32 µM (inactive)
- EC50 (Cannabinoid receptor 1 [14]): > 32 µM (inactive)
- IC50 (Cannabinoid receptor 2 [15]): > 32 µM (inactive)
- EC50 (Cannabinoid receptor 2 [16]): > 32 µM (inactive)
Compound: CCN(CC)S(=O)(=O)c1ccc(N2CCCCC2)c(C(=O)N2CCN(c3ccccc3)CC2)c1

- IC50 [17]: 0.558 µM (active)
- IC50 [18]: 0.71 µM (active)
- IC50 (Mu-type opioid receptor): 3.31 µM (active)
- IC50 [9]: > 32 µM (inactive)
- IC50 [19]: 0.137 µM (active)
Compound: Cc1ccc(S(=O)(=O)NCc2ccc(C(=O)NCCN(Cc3ccccc3)C3CCCC3)cc2)cc1
